Values of other authors as cited in US20050171207A1, “Method and composition for combination treatment of neurodegenerative disorders” (Myriad Genetics, Incorporated, priority 2003, published 2005).
Where two headings read alike, the source gives them in different places.

Assays:
[1] = test system: pain related chemo-somatosensory evoked potentials; details: 50 mg and 100 mg doses, human subjects
Aβ42 [2] = details: CHO cells
Aβ42 [3] = details: transgenic mouse model
[4] = test system: Alzheimer's disease excitotoxic model; details: in vivo Alzheimer's disease excitotoxic model system
mild-to-moderate AD [5] = details: rofecoxib at 25 mg daily; naproxen in the same trial
mild-to-moderate AD [6] = details: in vivo

## C[C@@H](C(=O)O)c1ccc(-c2ccccc2)c(F)c1 [R-flurbiprofen]
[1]
  analgesic effect: produced an analgesic effect
Aβ42 [2]
  Aβ42 lowering: lower Aβ42
COX
  inhibition of COX activity: negligibly inhibits COX activity
Aβ42 [3]
  Aβ42 lowering: lower Aβ42

## CS(=O)(=O)c1ccc(C2=C(c3ccccc3)C(=O)OC2)cc1 [rofecoxib]
[4]
  neuroprotection: provides neuroprotection
mild-to-moderate AD [5]
  efficacy for treating AD: failed to show efficacy

## CC12CC3CC(C)(C1)CC(N)(C3)C2 [memantine]
mild-to-moderate AD [6]
  efficacy in treating mild-to-moderate AD: showed efficacy

## COc1ccc2cc([C@H](C)C(=O)O)ccc2c1 [Naproxen]
mild-to-moderate AD [5]
  efficacy for treating AD: failed to show efficacy
